The results in this text go back to patent US20240180972A1, “HUMAN PLURIPOTENT STEM CELL-DERIVED SECRETOME AS A BIOLOGIC FOR PREVENTION AND TREATMENT OF NEURODEGENERATIVE AND APOPTOTIC DISEASES” (The Regents of the University of California, priority 2021, published 2024).

In data set [1] the test system is OCT4, NANOG. Nature of the data set: Pluripotency marker expression (qRT-PCR) in iPSCs after epigenetic modifiers. It is filed as cell-based, human. The settings on record: iPSCs treated 3 days: 5 μM Nanomycin A, 10 μM LSD1 inhibitor, 5 μM 5-Azacytidine, 10 μM GSK126. As to the method:
Total RNA was extracted using the RNeasy mini kit (Qiagen), and the SuperScript III First-Strand Synthesis System (Invitrogen) was used to synthesize cDNA according to the manufacturer's instructions. Real-time PCR was performed on a Bio-Rad iQ5 real-time PCR machine.
(§1) For the collection of CM, separate cultures of hiPSCs were set up for 3 days with one of the following small molecules: 5 μM Nanomycin A (A8191, Apexbio), 10 μM LSD1 inhibitor (489476, Millipore-Sigma), 5 μM 5-Azacytidine (C832A53, Thomas Scientific), and 10 μM GSK126 (67-905, Tocris). After 3 days of treatment, CM was collected (without the inhibitors) using the same protocol as described above.

The test system of data set [2] is ALS-MNPs. Briefly: Viability (MTT) and apoptosis (Annexin V) of H2O2 exposed ALS-MNPs, incl. epigenetic inhibitors screen. It is filed as cell-based, human. Here is the method:
[…] MNs were cultured in a 96-well plate at a cell density of 2×10^4 and treated with H2O2 and/or CMs for 24 hours before performing the viability assay. A SpectraMax iD3 Multi-Mode Microplate Reader (Molecular Devices) was used for measuring fluorescence intensity (560/590 nm).
The apoptosis assay of fibroblasts was by Annexin V-CF Blue/7-AAD Apoptosis Detection Kit (ab214663, Abcam) according to the manufacturer's protocol. Briefly, cells were detached using 0.05% trypsin and washed twice with PBS. Then, samples were resuspended in 1× annexin-binding buffer and incubated with 5 μL Annexin V-FITC and 5 μL 7-amino-actinomycin D (7AAD) for 15 min at 37° C., avoiding light. Finally, the stained samples were analyzed on a Guava Easycyte Flowcytometer (Millipore-Sigma) at an excitation wavelength of 488 nm and emission filters of 525 and 625 nm. For MNs, the apoptotic assay was conducted on two different markers, FITC-conjugated-annexinV (ab201540) or Cleaved caspase 3 (9669S). For annexinV detection, MNs in 96-well plates were washed twice with PBS. Then, 100 μL Annexin V binding buffer was added with 5 μL Annexin V-FITC for 5 min incubation at 37° C., avoiding light. The stained plate was analyzed on a SpectraMax iD3 Multi-Mode Microplate Reader (490/525 nm). For the Cleaved caspase 3, the immunofluorescence protocol was used.
as §1
Based on the absence of neuroprotective activity in the differentiated progeny of iPSCs, we decided to confirm and mechanistically extrapolate the relationship between the protective effects and pluripotency. […] To follow on the requirement for pluripotency, we employed a screen with inhibitors of pluripotency that modify the epigenetic states of iPSCs. […]

Data set [3] has as its system human motor neurons (MNs). Nature of the data set: MTT viability and Annexin V apoptosis assays of human motor neurons exposed to H2O2. It is filed as cell-based. As to the method:
The process of MNP and MN differentiation was as published (61). Briefly, hPSCs were detached by 0.5 mM EDTA and split 1:10 on Matrigel-coated plates (1:50 dilution). After one day, the Essential 8 was changed to neural inducing medium containing neural basal medium (NBM) plus 3 μM CHIR99021 (Tocris), 2 μM LDN-193189 (Tocris) and 3 μM SB431542 (Stemgent). The NBM is composed of DMEM/F12, Neurobasal medium (FisherScientific) at 1:1, N2, B27, 0.1 mM ascorbic acid (Millipore-Sigma), 1× Glutamax and 1× penicillin/streptomycin (all from Invitrogen). The inducing medium was maintained for 5 days and changed every other day. On day 5, the cultured cells were split at 1:6 with Accutase and cultured in NBM containing 3 μM CHIR99021, 2 μM SB431542, 0.1 μM retinoic acid (RA, Stemgent) and 0.5 μM purmorphamine (Pur, Stemgent). […]
[…] A SpectraMax iD3 Multi-Mode Microplate Reader (Molecular Devices) was used for measuring fluorescence intensity (560/590 nm).
The apoptotic assay of fibroblasts was by Annexin V-CF Blue/7-AAD Apoptosis Detection Kit (ab214663, Abcam) according to the manufacturer's protocol. […] Finally, the stained samples were analyzed on a Guava Easycyte Flowcytometer (Millipore-Sigma) at an excitation wavelength of 488 nm and emission wavelengths of 525 and 625 nm. […] The stained plate was analyzed on a SpectraMax iD3 Multi-Mode Microplate Reader (495/525 nm). […]

Data set [4] deals with IMR90 fibroblasts. Nature of the data set: MTT viability assay of IMR90 fibroblasts (H2O2, hESC-CM, dF-CM). It is filed as cell-based. Conditions: 200 μM H2O2. From the text: hESC conditioned medium was previously shown to enhance myogenic and neurogenic responses of tissue precursor cells (43, 44), but the effects on cell viability were less studied. We decided to explore a protective role of hESC conditioned medium (hESC-CM) when cells experience oxidative damage, which is physiologically and clinically relevant in a number of human diseases (56, 57). To set up this experimental system, we first performed dose response studies in IMR90 fibroblasts to varying concentrations of H2O2 and of hESC-CM using an MTT assay.
We then tested eight experimental cohorts, e.g., 200 μM H2O2 alone or in combination with 30% hESC-CM or CM from hESC-derived fibroblasts (dF-CM) (43) and controls for the various culture medium formulations (FIG. 1, panel C).
When cells were grown to 70% confluence, they were subcultured at 1/5 dilution for later passaging.
After H2O2 and/or CM or CM-derived factors treatment, the number of viable cells was determined by a resorufin based assay using the commercially available CellTiter-Blue® cell viability assay (G8080, Promega), as per the manufacturer's protocol. MNs were cultured in a 96-well plate at a cell density of 2×10^4 and treated with H2O2 and/or CMs for 24 hours before performing the viability assay. A SpectraMax iD3 Multi-Mode Microplate Reader (Molecular Devices) was used for measuring fluorescence intensity (560/590 nm). […]

[5] abbreviates: iPSCs treated 3 days with 10 μM GSK126 before CM collection, N=4, P<0.01.

With `Nc1ncn([C@@H]2O[C@H](CO)[C@@H](O)[C@H]2O)c(=O)n1` [5Aza, 5-Azacytidine], the “Expression of OCT4 compared to the untreated groups (WTC11 and CS07)” value in data set [1] is on record as “significantly decreased”.
On to `CC[C@H](C)n1cc(C)c2c(C(=O)NCc3c(C)cc(C)[nH]c3=O)cc(-c3ccc(N4CCNCC4)nc3)cc21` [GSK126], for which, in data set [2] (MNPs exposed to H2O2, pre-treated with CM), the “Effect of treating ALS iPSCs with the epigenetic inhibitor on the neuroprotective activity of their CM” value is given as “significantly reduced the neuroprotective activity”. In addition, in data set [2] (setting [5]), the “Apoptosis (Annexin V) of H2O2 exposed ALS-MNPs treated with CM of ALS iPSCs without or with inhibitor pre-treatment” value was determined as 2.65±0.23 and the “Viability (MTT) of H2O2 exposed ALS-MNPs treated with CM of ALS iPSCs without or with inhibitor pre-treatment” value is given as 0.47±0.02. In addition, the “Expression of OCT4 compared to the untreated groups (WTC11 and CS07)” value in data set [1] is “the decrease was not significant”.
In the case of `OO` [H2O2], the “Viability (MTT) of human MNs with H2O2 alone or co-treated with CM or fraction” value in data set [3] (H2O2, 200 μg/ml HBPs, unfractionated CM, N=4) is 0.49±0.01. For the same compound, the “Motor neuron viability after H2O2 treatment” value in data set [3] (human MNs, 200 μM H2O2) is given as “below 50%”. For the same compound, in data set [4], the “Cell viability (MTT) after H2O2 treatment” value is on record as “below 50%” and the “Cell viability after H2O2 treatment, normalized to the values at the 0 concentration” value was “below 0.5”.
As to `C[C@@H]1O[C@@H](CC(=O)O)CC2=C1C(=O)c1c(O)cccc1C2=O` [NaA, Nanomycin A], the “Expression of OCT4 compared to the untreated groups (WTC11 and CS07)” value in data set [1] is recorded as “significantly decreased”.
